Values quoted from earlier work, collected in US20170209576A1, “DELIVERY COMPOSITIONS AND METHODS” (REGENTS OF THE UNIVERSITY OF MINNESOTA, priority 2014, published 2017).

Legend:
[1] = aqueous solution
[2] = micropipette techniques

## 1,2-Distearoyl-sn-glycero-3-phosphoethanolamine (DSPE)-PEG^2000 [DSPE-PEG^2000]
[1]
  critical micelle concentration (CMC): 5.8 µM

## CCCCCCCCCCCCCCCC(=O)OCC(COP(=O)(O)OCCN)OC(=O)CCCCCCCCCCCCCCC (stereo not shown) [DPPE, dipalmitoylphosphatidylethanolamine]
other
  pKa of terminal amine group: 9.8

## CCCCCCCCCCCCCCCC(=O)OC[C@@H](O)COP(=O)([O-])OCC[N+](C)(C)C [MPPC, monopalmitoyl phosphatidyl choline]
[2]
  rate of adsorption of monomers into the outer bilayer leaflet: 0.2 s⁻¹
[1]
  critical micelle concentration (CMC): 4 µM
